# Assay results taken from patent US6197959A, “Piperidine derivatives” (Hoffmann-La Roche Inc., priority 1999, dated 2001).
# Target: T1, human renin (Homo sapiens, UniProt P00797)
# T1 sequence (P00797 67-406): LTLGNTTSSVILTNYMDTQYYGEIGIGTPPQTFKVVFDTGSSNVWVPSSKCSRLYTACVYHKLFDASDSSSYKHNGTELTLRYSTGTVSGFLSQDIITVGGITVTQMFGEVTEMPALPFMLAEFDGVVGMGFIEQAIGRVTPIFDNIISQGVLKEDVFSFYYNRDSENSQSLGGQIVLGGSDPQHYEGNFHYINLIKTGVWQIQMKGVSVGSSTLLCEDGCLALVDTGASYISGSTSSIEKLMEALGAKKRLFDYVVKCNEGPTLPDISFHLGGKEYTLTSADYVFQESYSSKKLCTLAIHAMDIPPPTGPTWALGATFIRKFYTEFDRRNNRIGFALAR
# Test: In vitro Test With Pure Human Renin
# Format: biochemical
# Settings: human tetradecapeptide substrate, pH 7.4, 3 h at 37° C., angiotensin I by RIA
# Protocol: The tests can be carried out in analogy to those described by D. T. Pals et al. in Hypertension Vol. 8, 1105-1112 (1986) or J. Boger et al. in J. Med. Chem. 28, 1779-1790 (1985) or […] et al. in J. Med. Chem. 30, 2137-2144 (1987) or T. Kokubu et al. in Biochem. Biophys. Res. Commun. 118, 929-993 (1984): In vitro Test With Pure Human Renin The test is carried out in Eppendorf test tubes. The incubation mixture consists of (1) 100 μl of human renin in buffer A (0.1 M sodium phosphate solution, pH 7.4, containing 0.1% bovine serum albumin, 0.1% sodium aside and 1 mM ethylenediaminetetraacetic acid), sufficient for a renin activity of 2-3 ng of angiotensin I/ml/hr.; (2) 145 μl of buffer A: (3) 30 μl of 10 mM human tetradecapeptide renin substrate (hTD) in 10 mM hydrochloric acid: (4) 15 μl of dimethyl sulphoxide with or without inhibitor and (5) 10 μl of a 0.03 molar solution of hydroxyquinoline sulphate in water. The samples are incubated for three hours at 37° C. and, respectively, 4° C. in triplicate. 2×100 μl samples per test tube are used in order to measure the production of angiotensin I via RIA (standard radioimmunoassay; clinical assay solid phase kit). Cross reactivities of the antibody used in the RIA are: angiotensin I 100%; angiotensin II 0.0013%; hTD (angiotensin […]-OH) 0.09%. The production of angiotensin I is determined by the difference between the test at 37° C. and that at 4° C. The following controls are carried out: (a) Incubation of hTD samples without renin and without inhibitor at 37° C. and 4° C. The difference between these two values gives the base value of the angiotensin I production. (b) Incubation of hTD samples with renin, but without inhibitor at 37° C. and 4° C. The difference between these values gives the maximum value of the angiotensin I production. In each sample the base value of the angiotensin I production is subtracted from the angiotensin I production which is determined. […] The IC50 values are determined from a linear regression curve from a logit-log plot.
row,IC50 [nM],SMILES
1,0.04,"COC(=O)CCN1CCCc2ccc(COC3CNCC[C@@H]3c3ccc(OCCCOCc4ccccc4OC)cc3)cc21 (mixture of isomers) [E, (3RS,4R)-3-[7-(4-[4-[3-(2-methoxy-benzyloxy)-propoxy]-phenyl]-piperidin-3-yloxymethyl)-3,4-dihydro-2H-quinolin-1-yl]-propionic acid methyl ester]"
2,0.05,"COc1ccccc1COCCCOc1ccc([C@H]2CCNC[C@@H]2OCc2ccc3c(c2)N(CCNC(C)=O)CCC3)cc1 [A, (3R,4R)-N-[2-[7-[4-[4-[3-(2-methoxy-benzyloxy)-propoxy]-phenyl]-piperidin-3-yloxymethyl]-3,4-dihydro-2H-quinolin-1-yl]-ethyl]-acetamide]"
3,0.05,"CCOC(=O)CN1CCCc2ccc(CO[C@H]3CNCC[C@@H]3c3ccc(OCCCOCc4ccccc4OC)cc3)cc21 [B, (3R,4R)-[7-(4-[4-[3-(2-methoxy-benzyloxy)-propoxy]-phenyl]-piperidin-3-yloxymethyl)-3,4-dihydro-2H-quinolin-1-yl]-acetic acid ethyl ester]"
4,0.08,"COc1ccccc1COCCCOc1ccc([C@H]2CCNC[C@@H]2OCc2ccc3c(c2)N(CCCO)CCC3)cc1 [C, (3R,4R)-3-[7-[4-[4-[3-(2-methoxy-benzyloxy)-propoxy]-phenyl]-piperidin-3-yloxymethyl]-3,4-dihydro-2H-quinolin-1-yl]-propan-1-ol]"
5,0.06,"COc1ccccc1COCCCOc1ccc([C@H]2CCNC[C@@H]2OCc2ccc3c(c2)N(CCNS(N)(=O)=O)CCC3)cc1 [Compound I, (3R,4R)-N-[2-[7-[4-[4-[3-(2-methoxy-benzyloxy)-propoxy]-phenyl]-piperidin-3-yloxymethyl]-3,4-dihydro-2H-quinolin-1-yl]-ethyl]-sulfamide]"
6,0.02,"COC(=O)CN1CCCc2ccc(CO[C@H]3CNCC[C@@H]3c3ccc(OCCCOCc4ccccc4OC)cc3)cc21 [D, (3R,4R)-[7-(4-[4-[3-(2-methoxy-benzyloxy)-propoxy]-phenyl]-piperidin-3-yloxymethyl)-3,4-dihydro-2H-quinolin-1-yl]-acetic acid methyl ester]"
7,0.05,"COCCCN1CCCc2ccc(CO[C@H]3CNCC[C@@H]3c3ccc(OCCCOCc4ccccc4OC)cc3)cc21 [F, (3R,4R)-7-[4-[4-[3-(2-methoxy-benzyloxy)-propoxy]-phenyl]-piperidin-3-yloxymethyl)-1-(3-methoxy-propyl]-1,2,3,4-tetrahydro-quinoline]"
8,0.07,"COc1ccccc1COCCCOc1ccc([C@H]2CCNC[C@@H]2OCc2ccc3c(c2)N(CC#N)CCC3)cc1 [G, (3R,4R)-[7-(4-[4-[3-(2-methoxy-benzyloxy)-propoxy]-phenyl]-piperidin-3-yloxymethyl)-3,4-dihydro-2H-quinolin-1-yl]-acetonitrile]"
9,0.07,"COc1ccccc1COCCCOc1ccc([C@H]2CCNC[C@@H]2OCc2ccc3c(c2)N(CCNS(C)(=O)=O)CCC3)cc1 [H, (3R,4R)-N-[2-[7-[4-[4-[3-(2-methoxy-benzyloxy)-propoxy]-phenyl]-piperidin-3-yloxymethyl]-3,4-dihydro-2H-quinolin-1-yl]-ethyl]-methanesulfonamide]"
10,0.09,COc1ccccc1COCCCOc1ccc([C@H]2CCNC[C@@H]2OCc2ccc3c(c2)N(CCNC(N)=O)CCC3)cc1 [J]
11,0.05,"COc1ccccc1COCCCOc1ccc([C@H]2CCNC[C@@H]2OCc2ccc3c(c2)N(CCNC(=O)C(F)(F)F)CCC3)cc1 [K, (3R,4R)-2,2,2-trifluoro-N-[2-[7-[4-[4-[3-(2-methoxy-benzyloxy)-propoxy]-phenyl]-piperidin-3-yloxymethyl]-3,4-dihydro-2H-quinolin-1-yl]-ethyl]-acetamide]"
